Measurements reported in US20140148606A1, “ANTI-TUMOR EFFECTS OF ALLOSTERIC FOCAL ADHESION KINASE INHIBITOR, METHYL VIOLET DERIVATIVES” (Korea Institute of Science and Technology, priority 2012, published 2014).

Tests used:
full-length FAK = target: T1, full-length FAK (Homo sapiens, UniProt Q05397); experiment: FAK biochemical kinase assay (LANCE Ultra TR-FRET); conditions: for dependence of kinase inhibitory activity against full-length FAK on the concentration of ATP: methyl violet 2B at 2.7 μM, FIG. 2
T1 construct: purchased Signalchem
T1 sequence (Q05397 whole entry): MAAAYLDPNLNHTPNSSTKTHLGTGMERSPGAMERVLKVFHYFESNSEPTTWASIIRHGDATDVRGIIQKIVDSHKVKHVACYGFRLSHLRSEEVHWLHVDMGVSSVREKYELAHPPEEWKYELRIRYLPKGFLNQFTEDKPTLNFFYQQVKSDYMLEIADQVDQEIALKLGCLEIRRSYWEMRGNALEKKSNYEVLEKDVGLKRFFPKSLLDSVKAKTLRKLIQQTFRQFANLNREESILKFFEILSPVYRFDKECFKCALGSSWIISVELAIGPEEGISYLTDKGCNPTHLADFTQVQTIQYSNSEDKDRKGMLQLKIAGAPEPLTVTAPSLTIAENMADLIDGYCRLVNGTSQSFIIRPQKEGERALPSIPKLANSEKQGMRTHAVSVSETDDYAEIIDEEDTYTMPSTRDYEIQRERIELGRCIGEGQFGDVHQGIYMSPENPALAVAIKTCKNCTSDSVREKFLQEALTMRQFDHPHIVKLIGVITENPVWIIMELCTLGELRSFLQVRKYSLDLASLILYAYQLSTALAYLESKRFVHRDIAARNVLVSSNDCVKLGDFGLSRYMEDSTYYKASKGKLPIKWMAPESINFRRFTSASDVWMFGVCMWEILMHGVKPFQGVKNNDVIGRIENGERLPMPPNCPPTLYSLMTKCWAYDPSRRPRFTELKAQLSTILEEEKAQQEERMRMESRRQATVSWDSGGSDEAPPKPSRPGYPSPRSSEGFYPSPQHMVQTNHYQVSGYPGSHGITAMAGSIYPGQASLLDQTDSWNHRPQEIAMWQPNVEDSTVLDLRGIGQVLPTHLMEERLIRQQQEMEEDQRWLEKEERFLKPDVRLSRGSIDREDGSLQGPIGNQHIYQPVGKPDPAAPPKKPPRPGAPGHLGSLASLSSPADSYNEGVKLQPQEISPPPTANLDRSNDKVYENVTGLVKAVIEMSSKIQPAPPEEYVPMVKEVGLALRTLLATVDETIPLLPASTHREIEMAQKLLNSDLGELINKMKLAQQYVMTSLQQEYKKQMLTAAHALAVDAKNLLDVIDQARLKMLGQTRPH
Method: Kinase reactions were performed at room temperature in lysis buffer (50 mM HEPES pH 7.5, 1 mM EGTA, 10 mM MgCl2, 2 mM DTT and 0.01% Tween-20) with 0.3 nM FAK (Signalchem), 100 nM ULight-poly GT (PerkinElmer), 10 μM ATP, and various concentrations (10 fold serial dilution, 6 points) of test compounds at a final volume of 10 μL. After 1 h, the kinase reaction was stopped by adding 10 mM EDTA and progressed by incubating the reaction mixture at room temperature for 5 min. To the mixture was added Detection Mix (Eu-anti-phospho-Tyr (PT66)) antibody to a final concentration of 2 nM and incubated for 1 h at room temperature. The plates were covered before being read using an EnVision® Multilabel reader in TR-FRET mode (excitation at 320 nm and emission at 665 nm, PerkinElmer).

C-raf = experiment: Western analysis, C-raf phosphorylation; type: cell-based, human
Method: (§1) After incubating with the test compound for 48 h, both adherent and floating cancer cells were collected. The cells were lysed on ice in lysis buffer (50 mM Tris, pH 7.4, 150 mM NaCl, 1 mM EDTA, 1% NP-40, 0.25% sodium deoxycholate) supplemented with phosphatase inhibitors (Sigma #P2850, #5726; Phosphatase Inhibitor Cocktail I & II) and protease inhibitors (Complete, Mini, EDTA-free; Roche Applied Science) for 20 min. The protein concentration was determined using the Bio-Rad Protein assay reagent (Bio-Rad #500-0006). The lysate was centrifuged at 13000 rpm at 4° C. for 20 min. 50 μg of total proteins were mixed with […] (50 mM Tris-HCl (pH 6.8), 2% SDS, 10% 2-mercaptoethanol, 10% glycerol, and 0.002% bromophenol blue), boiled for 5 min, and subjected to a 10% SDS polyacrylamide gel electrophoresis. The proteins were electrophoresed onto nitrocellulose membranes and detected with antibodies against FER, FAK, DOCK180, Pyk2, Paxillin, AKT, GSK3, PTEN, JNK, ERK, Bcl-2, C-raf and Actin and against phosphorylated FER Tyr402, FAK Tyr925, Tyr861, Tyr577, Tyr576, Tyr397, Pyk2 Tyr402, Paxillin Tyr118, AKT S473, T308, GSK3β S9, JNK, ERK, Bad, C-raf and ERM T567, T564, T558 followed by the addition of horseradish peroxidase (HRP)-conjugated secondary antibodies and 3,3-diaminobenzidine tetrahydrochloride (DAB) as the HRP substrate.

PTEN = experiment: Western analysis, PTEN level in A375P cells; type: cell-based, human; conditions: 48 h
Method: as §1

GSK3β S9 = experiment: Western analysis, GSK3β phosphorylation in A375P cells; type: cell-based, human; conditions: dose-dependent, 48 h
Method: as §1

AKT = experiment: Western analysis, AKT phosphorylation in A375P cells; type: cell-based, human; conditions: 1 nM, 48 h
Method: as §1

p-JNK = experiment: Western analysis, JNK phosphorylation in A375P cells; type: cell-based, human; conditions: 10 nM, 48 h
Method: as §1

FAK = experiment: Western analysis, FAK phosphorylation in A375P cells; type: cell-based, human; conditions: 0.1-10 nM, 48 h
Method: as §1

Bcl-2 = experiment: Western analysis, Bcl-2 expression; type: cell-based, human; conditions: concentrations >1 nM, concentration-dependent
Method: as §1

A375P cells [1] = experiment: Migration (wound healing) assay, Ibidi Culture-Insert; type: cell-based, human; conditions: 1 nM, 48 h
Method: Migration of the A375P cells was assessed by using the Culture-Inserts (Ibidi) according to the manufacturer's protocol. The cells were plated at a density of 1×10^5 cells/well in each well of Culture-Inserts. After 24 h incubation, the Culture-Inserts were removed, and wounds were created by using a 500-μm thick wall. The dish containing these cells was treated with medium containing the compound and incubated at 37° C. for 48 h. Phase-contrast images of the closed gap wound were captured using a microscope.

p-Bad = experiment: Western analysis, Bad phosphorylation; type: cell-based, human; conditions: compared to Bcl-2
Method: as §1

A375P cells [2] = experiment: QCM ECMatrix Cell Invasion Assay; type: cell-based, human; conditions: 1 nM, 48 h
Method: Invasion of A375P cells was assessed by using the QCM ECMatrix Cell Invasion Assay (Chemicon, Millipore, Calif.) according to the manufacturer's protocol. The cells were plated on the membrane of the upper chamber of the transwell at a concentration of 2.5×10^5 cells/well in 500 μL of serum-free medium. The medium in the lower chamber contained the test compound and 10% fetal bovine serum. The cells that passed through the polycarbonate membrane were stained with cell stain solution supplied in the Transwell Invasion assay (Chemicon, Millipore, Calif.) and photographed after 48 h of incubation. The invasion was quantitated by dissolving the stained cells in 10% acetic acid and transferring a consistent amount of the dye/solute mixture to a 96-well plate for colorimetric reading of OD at 560 nm.

FER Tyr402 = experiment: Western analysis, FER phosphorylation in A375P cells; type: cell-based, human; conditions: 10 nM, 48 h
Method: as §1

NIH3T3 = experiment: Anti-proliferative activity assay (MTT / CellTiter-Glo); type: cell-based; conditions: Mus musculus; NIH3T3, fibroblast; read-out: IC50 (nM), proliferation
Method: (§2) Melanoma cells (A375P, A375SM) and breast cancer cells (MDA-MB-231, MCF7) were maintained in DMEM medium (Welgene, Daegu, Korea). Colorectal cancer cells (HCT116, HT29), lung cancer cells (A549) and prostate cancer cells (DU145) were grown in RPMI1640 medium (Welgene). NIH3T3 and Balb/c cells were cultured in DMEM/F12 medium (Welgene).
(§3) Each medium was supplemented with 10% FBS (Welgene) and 1% penicillin/streptomycin (Welgene) in a humidified atmosphere with 5% CO2 at 37° C. A375P cells were purchased from the American Type Culture Collection (ATCC, Rockville, Md., US), and A375SM, MDA-MB-231, MCF7, HCT116, HT29, A549, DU145, NIH3T3 and Balb/c were purchased from the Korean Cell Line Bank (Seoul, Korea).
(§4) Cells were taken from culture substrate with 0.05% trypsin-0.02% EDTA and plated at a density of 5×10^3 cells/well in 96 well plates and then incubated at 37° C. for 24 h in a humidified atmosphere with 5% CO2 prior to treatment of various concentration (tenfold serial dilution, 6 steps) of test compounds. The cell viability was assessed by the conventional 3-(4,5-dimethylthiazol-2-yl)-2,5-diphenyltetrazolium bromide (MTT) reduction assay and luminescent assay. The MTT and luminescent assays were carried out with CellTiter 96® and CellTiter-Glo® Luminescent Cell Viability Assay (Promega, Wis., USA) according to the manufacturer's instructions. The absorbance at 590 nm was recorded using EnVision2103 (PerkinElmer; Boston, Mass., US). The IC50 value was calculated using the GraphPad Prism 4.0 software.

DU145 = experiment: as above; type: cell-based; conditions: Homo sapiens, DU-145; DU145, prostate; read-out: IC50 (nM), proliferation
Method: as §2, §3, §4

MDA-MB-231 = experiment: as above; type: cell-based; conditions: Homo sapiens; MDA-MB-231, breast; read-out: IC50 (nM), proliferation
Method: as §2, §3, §4

Balb/c = experiment: as above; type: cell-based; conditions: Mus musculus, fibroblast, read-out: IC50 (nM), proliferation
Method: as §2, §3, §4

A375P = experiment: as above; type: cell-based; conditions: Homo sapiens, skin, read-out: IC50 (nM), proliferation
Method: as §2, §3, §4

MCF7 = experiment: as above; type: cell-based; conditions: Homo sapiens; MCF7, breast; read-out: IC50 (nM), proliferation
Method: as §2, §3, §4

HT29 = experiment: as above; type: cell-based; conditions: Homo sapiens, HT-29; HT29, colon; read-out: IC50 (nM), proliferation
Method: as §2, §3, §4

A375SM = experiment: as above; type: cell-based; conditions: Homo sapiens, A375-SM, skin, read-out: IC50 (nM), proliferation
Method: as §2, §3, §4

HCT116 = experiment: as above; type: cell-based; conditions: Homo sapiens, HCT-116; HCT116, colon; read-out: IC50 (nM), proliferation
Method: as §2, §3, §4

A549 = experiment: as above; type: cell-based; conditions: Homo sapiens; A549, lung; read-out: IC50 (nM), proliferation
Method: as §2, §3, §4

p-ERK = experiment: Western analysis, ERK phosphorylation in A375P cells; type: cell-based, human; conditions: 10 nM, 48 h
Method: as §1

With `CNC(=O)c1ccccc1Nc1nc(Nc2ccc(N3CCOCC3)cc2OC)ncc1Cl` [TAE226, reference compound] the “dependence of kinase inhibitory activity against full-length FAK on the concentration of ATP” value (full-length FAK) was “inversely proportional to the concentration of ATP”.
For `CN=C1C=CC(=C(c2ccc(N(C)C)cc2)c2ccc(N(C)C)cc2)C=C1.Cl` [methyl violet 2B], the “phosphorylation of C-raf” value (C-raf) was “did not affect”, the “level of PTEN” value (PTEN) was “not altered” and the “phosphorylation of GSK3β S9” value (GSK3β S9) was “significantly blocked”. The “inhibition of p-AKT Ser473” value (AKT) was “dramatically inhibits”, the “inhibition of p-AKT Thr308” value (AKT) was “dramatically inhibits” and the “inhibitory effect against p-JNK” value (p-JNK) was “strong inhibitory effect”. The “inhibitory effect on phosphorylation of FAK Tyr925, Tyr861 and Tyr577” value (FAK) was “much greater than that of Y576 and Y397”, the “expression of the anti-apoptotic molecule Bcl-2” value (Bcl-2) was “significantly suppressed” and the “cancer cell (A375P) motility / migration” value (A375P cells [1]) was “suppresses”. The “effect on p-Bad” value (p-Bad) was “less effective”, the IC50 (full-length FAK; 10 μM ATP, LANCE Ultra kinase assay) was 2700 nM and the “dependence of kinase inhibitory activity against full-length FAK on the concentration of ATP” value (full-length FAK) was “independent of the concentration of ATP”. For the same compound, the “invasion of the A375P cells” value (A375P cells [2]) was “dose-dependent decrease”, the “inhibition of phosphorylation of FER Tyr402” value (FER Tyr402) was “significantly inhibits” and the IC50 (NIH3T3) was 938 nM. The IC50 (DU145) was 81.5 nM, the IC50 (MDA-MB-231) was 13.4 nM and the IC50 (Balb/c) was 59400 nM. It also gave an IC50 (A375P) of 19.6 nM, an IC50 (MCF7) of 69.7 nM and an IC50 (HT29) of 18.1 nM. The IC50 (A375SM) was 34.1 nM, the IC50 (HCT116) was 36.9 nM and the IC50 (A549) was 45.6 nM. The “inhibitory effect against p-ERK” value (p-ERK) was “strong inhibitory effect”.
